Experimental data taken from patent US9776997B2, “3-aryl-substituted imidazo[1,2-A]pyridines and their use” (Bayer Pharma Aktiengesellschaft, priority 2013, dated 2017).
Counter-ions that a name gives are not always drawn.

Biological target: T1, recombinant guanylate cyclase reporter cell line (Rattus norvegicus, UniProt P19686+P20595)
T1 construct: expressed in transfected cells; host or cells: recombinant reporter cell line
T1 sequence (P19686 1-690): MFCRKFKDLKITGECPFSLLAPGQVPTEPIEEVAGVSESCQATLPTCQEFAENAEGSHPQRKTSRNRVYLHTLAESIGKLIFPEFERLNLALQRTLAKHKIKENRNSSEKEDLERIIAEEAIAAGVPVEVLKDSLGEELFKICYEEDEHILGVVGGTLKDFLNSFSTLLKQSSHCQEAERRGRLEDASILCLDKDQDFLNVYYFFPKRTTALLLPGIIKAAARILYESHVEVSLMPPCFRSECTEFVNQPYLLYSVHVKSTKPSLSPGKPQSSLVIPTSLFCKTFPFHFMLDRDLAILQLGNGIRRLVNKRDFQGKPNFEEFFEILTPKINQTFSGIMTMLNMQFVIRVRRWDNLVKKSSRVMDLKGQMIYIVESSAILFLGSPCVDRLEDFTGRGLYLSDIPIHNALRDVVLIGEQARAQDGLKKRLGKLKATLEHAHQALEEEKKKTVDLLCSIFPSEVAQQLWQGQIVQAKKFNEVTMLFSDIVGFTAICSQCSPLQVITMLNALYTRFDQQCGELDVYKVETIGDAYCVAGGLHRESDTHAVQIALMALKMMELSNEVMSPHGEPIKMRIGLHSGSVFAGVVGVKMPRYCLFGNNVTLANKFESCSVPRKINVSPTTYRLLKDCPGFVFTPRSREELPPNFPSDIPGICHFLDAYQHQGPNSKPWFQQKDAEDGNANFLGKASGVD
T1 sequence (P20595 1-619): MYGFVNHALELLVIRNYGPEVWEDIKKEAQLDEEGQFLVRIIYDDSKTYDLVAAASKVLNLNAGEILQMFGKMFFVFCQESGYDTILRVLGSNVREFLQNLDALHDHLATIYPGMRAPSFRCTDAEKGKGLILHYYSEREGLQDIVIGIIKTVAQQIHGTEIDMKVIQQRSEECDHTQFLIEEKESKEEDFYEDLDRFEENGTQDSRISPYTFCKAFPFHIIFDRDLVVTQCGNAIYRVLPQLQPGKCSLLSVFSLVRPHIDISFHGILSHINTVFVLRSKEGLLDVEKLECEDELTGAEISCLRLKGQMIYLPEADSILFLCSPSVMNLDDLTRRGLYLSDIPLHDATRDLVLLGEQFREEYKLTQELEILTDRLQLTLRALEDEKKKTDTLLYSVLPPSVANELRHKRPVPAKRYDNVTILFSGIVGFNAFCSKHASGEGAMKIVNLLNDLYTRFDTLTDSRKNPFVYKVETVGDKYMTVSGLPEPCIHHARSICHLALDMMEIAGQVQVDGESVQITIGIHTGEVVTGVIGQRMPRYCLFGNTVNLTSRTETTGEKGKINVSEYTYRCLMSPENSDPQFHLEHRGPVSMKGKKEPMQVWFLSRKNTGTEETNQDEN
Assay: Effect on a recombinant guanylate cyclase reporter cell line
Assay type: cell-based
Details: MEC = minimum effective concentration; in some cases mean values for individual determinations
Experimental: B-2. Effect on a Recombinant Guanylate Cyclase Reporter Cell Line
The cellular effect of the inventive compounds is determined using a recombinant guanylate cyclase reporter cell line, as described in F. Wunder et al., Anal. Biochem. 339, 104-112 (2005).
Representative MEC values (MEC=minimum effective concentration) for the inventive compounds are shown in the table below (in some cases as mean values for individual determinations): […]

| Compound | MEC |
| --- | --- |
| Cc1ccc(-c2c(C)nc3c(OCc4c(F)cccc4F)cccn23)cc1 [Example 30, 8-[(2,6-difluorobenzyl)oxy]-2-methyl-3-(4-methylphenyl)imidazo[1,2-a]pyridine] | 3.0 µM |
| CCOC(=O)c1cccc(-c2c(C)nc3c(OCc4c(F)cccc4F)cccn23)c1 [Example 18, Ethyl 3-{8-[(2,6-difluorobenzyl)oxy]-2-methylimidazo[1,2-a]pyridin-3-yl}benzoate] | 1.0 µM |
| CCN(C)Cc1cccc(-c2c(C)nc3c(OCc4c(F)cccc4F)cccn23)c1 [Example 5, N-(3-{8-[(2,6-difluorobenzyl)oxy]-2-methylimidazo[1,2-a]pyridin-3-yl}benzyl)-N-methylethanamine] | 0.2 µM |
| Cc1nc2c(OCc3c(F)cccc3F)cccn2c1-c1ccc(F)cc1 [Example 16, 8-[(2,6-difluorobenzyl)oxy]-3-(4-fluorophenyl)-2-methylimidazo[1,2-a]pyridine] | 1.0 µM |
| Cc1nc2c(OCc3c(F)cccc3F)cccn2c1-c1ccsc1 [Example 14, 8-[(2,6-difluorobenzyl)oxy]-2-methyl-3-(3-thienyl)imidazo[1,2-a]pyridine] | 0.3 µM |
| Cc1nc2c(OCc3c(F)cccc3F)cccn2c1-c1ccncc1 [Example 29, 8-[(2,6-difluorobenzyl)oxy]-2-methyl-3-(pyridin-4-yl)imidazo[1,2-a]pyridine] | 1.0 µM |
| Cc1nc2c(OCc3c(F)cccc3F)cccn2c1-c1ccc2cn[nH]c2c1 [Example 51] | 0.3 µM |
| Cc1nc2c(OCc3c(F)cccc3F)cccn2c1-c1ccc2[nH]ncc2c1 [Example 54] | 1.0 µM |
| Cc1nc2c(OCc3c(F)cccc3F)cccn2c1-c1cccc(CN2CCCCC2)c1 [Example 42, 8-[(2,6-difluorobenzyl)oxy]-2-methyl-3-[3-(piperidin-1-ylmethyl)phenyl]imidazo[1,2-a]pyridine] | 3.0 µM |
| Cc1nc2c(OCc3c(F)cccc3F)cccn2c1-c1cnn(C)c1C [Example 56] | 3.0 µM |
| Cc1nc2c(OCc3c(F)cccc3F)cccn2c1-c1cnn(C(C)C)c1 [Example 52] | 0.3 µM |
| Cc1nc2c(OCc3c(F)cccc3F)cccn2c1-c1cn[nH]c1 [Example 45, 8-[(2,6-difluorobenzyl)oxy]-2-methyl-3-(1H-pyrazol-4-yl)imidazo[1,2-a]pyridine] | 0.1 µM |

The remaining lines, values ahead:

| MEC | Compound |
| --- | --- |
| 0.065 µM | Cc1cc(OCc2c(F)cccc2F)c2nc(C)c(-c3cnn(CCS(C)(=O)=O)c3)n2c1 [Example 96, 8-[(2,6-Difluorobenzyl)oxy]-2,6-dimethyl-3-{1-[2-(methylsulphonyl)ethyl]-1H-pyrazol-4-yl}imidazo[1,2-a]pyridine] |
| 0.1 µM | Cc1cc(OCc2c(F)cccc2F)c2nc(C)c(-c3cncc(C(=O)NC4CC4)c3)n2c1 [Example 78, N-Cyclopropyl-5-{8-[(2,6-difluorobenzyl)oxy]-2,6-dimethylimidazo[1,2-a]pyridin-3-yl}nicotinamide trifluoroacetate] |
| 0.1 µM | Cc1cc(OCc2c(F)cccc2F)c2nc(C)c(-c3cccnc3)n2c1 [Example 140, 8-[(2,6-Difluorobenzyl)oxy]-2,6-dimethyl-3-(pyridin-3-yl)imidazo[1,2-a]pyridine] |
| 0.03 µM | Cc1cc(OCc2c(F)ccc(F)c2F)c2nc(C)c(-c3cn[nH]c3)n2c1 [Example 86, 2,6-dimethyl-3-(1H-pyrazol-4-yl)-8-[(2,3,6-trifluorobenzyl)oxy]imidazo[1,2-a]pyridine] |
| 0.03 µM | Cc1cc(OCc2c(F)cccc2F)c2nc(C)c(-c3cnn(CCN4CCC(F)(F)CC4)c3)n2c1 [Example 92, 8-[(2,6-Difluorobenzyl)oxy]-3-{1-[2-(4,4-difluoropiperidin-1-yl)ethyl]-1H-pyrazol-4-yl}-2,6-dimethylimidazo[1,2-a]pyridine] |
| 0.03 µM | Cc1cc(OCc2c(F)cccc2F)c2nc(C)c(-c3cnn(CCN4CCOCC4)c3)n2c1 [Example 118, 8-[(2,6-Difluorobenzyl)oxy]-2,6-dimethyl-3-{1-[2-(morpholin-4-yl)ethyl]-1H-pyrazol-4-yl}imidazo[1,2-a]pyridine] |
| 0.3 µM | Cc1cc(OCc2c(F)cccc2F)c2nc(C)c(-c3cnn(CC(C)(C)N)n3)n2c1 [Example 83, 1-(4-{8-[(2,6-Difluorobenzyl)oxy]-2,6-dimethylimidazo[1,2-a]pyridin-3-yl}-2H-1,2,3-triazol-2-yl)-2-methylpropan-2-amine] |
| 0.3 µM | Cc1cc(OCc2c(F)cccc2F)c2nc(C)c(-c3cnn(CCC(=O)NC4CC4)c3)n2c1 [Example 114, N-Cyclopropyl-3-(4-{8-[(2,6-difluorobenzyl)oxy]-2,6-dimethylimidazo[1,2-a]pyridin-3-yl}-1H-pyrazol-1-yl)propanamide] |
| 0.3 µM | Cc1cc(OCc2c(F)cccc2F)c2nc(C)c(-c3nnc(CC(C)(C)N)s3)n2c1.O=CO [Example 133, 1-(5-{8-[(2,6-Difluorobenzyl)oxy]-2,6-dimethylimidazo[1,2-a]pyridin-3-yl}-1,3,4-thiadiazol-2-yl)-2-methylpropan-2-amine formate] |
| 0.3 µM | Cc1cc(OCc2c(F)cccc2F)c2nc(C)c(-c3cccc(CN4CCN(C)CC4)c3)n2c1 [Example 120] |
| 0.1 µM | Cc1cc(OCc2c(F)cccc2F)c2nc(C)c(-c3cnn(CC(N)=O)c3)n2c1 [Example 115, 2-(4-{8-[(2,6-Difluorobenzyl)oxy]-2,6-dimethylimidazo[1,2-a]pyridin-3-yl}-1H-pyrazol-1-yl)acetamide] |
| 1.0 µM | Cc1nc2c(OCc3c(F)cccc3F)cccn2c1-c1cn[nH]n1 [Example 134, 8-[(2,6-Difluorobenzyl)oxy]-2-methyl-3-(2H-1,2,3-triazol-4-yl)imidazo[1,2-a]pyridine] |
| 3.0 µM | Cc1nc(C)n(Cc2nnc(-c3c(C)nc4c(OCC5CCCCC5)cccn34)o2)n1 [Example 72] |
| 0.03 µM | Cc1cc(OCc2c(F)cccc2F)c2nc(C)c(-c3cnn(CC(C)(C)N)c3)n2c1 [Example 89, 1-(4-{8-[(2,6-Difluorobenzyl)oxy]-2,6-dimethylimidazo[1,2-a]pyridin-3-yl}-1H-pyrazol-1-yl)-2-methylpropan-2-amine] |
| 0.3 µM | Cc1cc(OCc2c(F)cccc2F)c2nc(C)c(-c3cnn(CCOC(N)=O)c3)n2c1 [Example 97, 2-(4-{8-[(2,6-Difluorobenzyl)oxy]-2,6-dimethylimidazo[1,2-a]pyridin-3-yl}-1H-pyrazol-1-yl)ethyl carbamate] |
| 1.0 µM | Cc1cc(OCc2c(F)cccc2F)c2nc(C)c(-c3nc[nH]n3)n2c1 [Example 128, 8-[(2,6-Difluorobenzyl)oxy]-2,6-dimethyl-3-(1H-1,2,4-triazol-3-yl)imidazo[1,2-a]pyridine] |
| 0.3 µM | Cc1nc2c(OCc3c(F)cccc3F)cccn2c1-c1cnn(CC(C)(C)N)c1 [Example 90, 1-(4-{8-[(2,6-Difluorobenzyl)oxy]-2-methylimidazo[1,2-a]pyridin-3-yl}-1H-pyrazol-1-yl)-2-methylpropan-2-amine] |
| 0.3 µM | Cc1cc(OCc2c(F)cccc2F)c2nc(C)c(-c3cn(CC(C)(C)N)nc3C)n2c1.O=CO [Example 127, 1-(4-{8-[(2,6-Difluorobenzyl)oxy]-2,6-dimethylimidazo[1,2-a]pyridin-3-yl}-3-methyl-1H-pyrazol-1-yl)-2-methylpropan-2-amine formate] |
